Assays:
Sprague Dawley (SD) rats = assay: Urinalysis, 4-week subacute toxicity study; format: in vivo, rat
Procedure: Urine samples were directly collected from the metabolic cage at the end of dosing phase (Day 26) and at the end of recovery phase (Recovery Day 28), respectively. Urinalysis parameters in Table 1 were evaluated using CLINITEK Atlas automatic urine analyzer (Germany).

rats = assay: Spontaneous withdrawal test in rats; format: in vivo, rat; details: iv 0.3 to 1.8 mg/kg/day for 30 consecutive days; data not shown
Procedure: However, we have conducted the spontaneous withdrawal test in rats in 2019 at WCFP (data not shown in this manuscript). The rats were intravenously injected with LPM3480392 injection from 0.3 to 1.8 mg/kg/day for 30 consecutive days. […] There were no apparent abnormalities in body weights of female rats in LPM3480392 injection groups during dosing and recovery phases. The effects of LPM3480392 on body weight in males or females in the spontaneous withdrawal test are similar to those in the subacute toxicity study in rats.

[1] = 0.6 mg/kg/day, End of dosing phase, N 5
[2] = 0.6 mg/kg/day, End of recovery phase, N 5
[3] = 1.2 mg/kg/day, End of dosing phase, N 5
[4] = 1.2 mg/kg/day, End of recovery phase, N 5
[5] = 2.4 mg/kg/day, End of dosing phase, N 4
[6] = 2.4 mg/kg/day, End of dosing phase, N 5
[7] = 2.4 mg/kg/day, End of recovery phase, N 4
[8] = 2.4 mg/kg/day, End of recovery phase, N 5

Fc1ccc([C@]2(CCNCc3cccc(Cl)c3)CCO[C@]3(CCOC3)C2)nc1 [LPM3480392]
6: Withdrawal behaviours reversed to normal, Recovery day (rats)
3: KET (mmol/L) of males: animals with grade 1.5 (Sprague Dawley (SD) rats; [1]) | NIT of males: animals with grade — (Sprague Dawley (SD) rats; [1]) | pH of females: animals with grade 7.5 (Sprague Dawley (SD) rats; [1]) | NIT of males: animals with grade + (Sprague Dawley (SD) rats; [2]) | KET (mmol/L) of males: animals with grade 1.5 (Sprague Dawley (SD) rats; [3]) | pH of females: animals with grade 7.5 (Sprague Dawley (SD) rats; [3]) | pH of females: animals with grade 8.5 (Sprague Dawley (SD) rats; [5])
4: pH of females: animals with grade 7.5 (Sprague Dawley (SD) rats; [2]) | NIT of males: animals with grade — (Sprague Dawley (SD) rats; [3]) | NIT of males: animals with grade — (Sprague Dawley (SD) rats; [4]) | NIT of males: animals with grade — (Sprague Dawley (SD) rats; [6]) | KET (mmol/L) of males: animals with grade — (Sprague Dawley (SD) rats; [8])
1: KET (mmol/L) of males: animals with grade 3.9 (Sprague Dawley (SD) rats; [1]) | KET (mmol/L) of males: animals with grade — (Sprague Dawley (SD) rats; [1]) | pH of females: animals with grade 7.0 (Sprague Dawley (SD) rats; [1]) | pH of females: animals with grade 8.5 (Sprague Dawley (SD) rats; [1]) | KET (mmol/L) of males: animals with grade 3.9 (Sprague Dawley (SD) rats; [2]) | pH of females: animals with grade 8.0 (Sprague Dawley (SD) rats; [2]) | KET (mmol/L) of males: animals with grade 3.9 (Sprague Dawley (SD) rats; [3]) | KET (mmol/L) of males: animals with grade — (Sprague Dawley (SD) rats; [3]) | NIT of males: animals with grade + (Sprague Dawley (SD) rats; [3]) | pH of females: animals with grade 7.0 (Sprague Dawley (SD) rats; [3]) | pH of females: animals with grade 8.5 (Sprague Dawley (SD) rats; [3]) | KET (mmol/L) of males: animals with grade 3.9 (Sprague Dawley (SD) rats; [4]) | NIT of males: animals with grade + (Sprague Dawley (SD) rats; [4]) | pH of females: animals with grade 6.0 (Sprague Dawley (SD) rats; [4]) | pH of females: animals with grade 7.5 (Sprague Dawley (SD) rats; [4]) | pH of females: animals with grade 8.0 (Sprague Dawley (SD) rats; [4]) | pH of females: animals with grade 7.5 (Sprague Dawley (SD) rats; [5]) | NIT of males: animals with grade + (Sprague Dawley (SD) rats; [6]) | KET (mmol/L) of males: animals with grade 1.5 (Sprague Dawley (SD) rats; [8])
2: NIT of males: animals with grade + (Sprague Dawley (SD) rats; [1]) | KET (mmol/L) of males: animals with grade 1.5 (Sprague Dawley (SD) rats; [2]) | KET (mmol/L) of males: animals with grade — (Sprague Dawley (SD) rats; [2]) | NIT of males: animals with grade — (Sprague Dawley (SD) rats; [2]) | KET (mmol/L) of males: animals with grade 1.5 (Sprague Dawley (SD) rats; [4]) | KET (mmol/L) of males: animals with grade — (Sprague Dawley (SD) rats; [4]) | pH of females: animals with grade 7.0 (Sprague Dawley (SD) rats; [4]) | pH of females: animals with grade 6.5 (Sprague Dawley (SD) rats; [7]) | pH of females: animals with grade 7.0 (Sprague Dawley (SD) rats; [7])
0: pH of females: animals with grade 6.0 (Sprague Dawley (SD) rats; [2]) | pH of females: animals with grade 6.5 (Sprague Dawley (SD) rats; [2]) | pH of females: animals with grade 7.0 (Sprague Dawley (SD) rats; [2]) | pH of females: animals with grade 6.5 (Sprague Dawley (SD) rats; [4]) | pH of females: animals with grade 7.0 (Sprague Dawley (SD) rats; [5]) | KET (mmol/L) of males: animals with grade 1.5 (Sprague Dawley (SD) rats; [6]) | KET (mmol/L) of males: animals with grade 3.9 (Sprague Dawley (SD) rats; [6]) | pH of females: animals with grade 6.0 (Sprague Dawley (SD) rats; [7]) | pH of females: animals with grade 7.5 (Sprague Dawley (SD) rats; [7]) | pH of females: animals with grade 8.0 (Sprague Dawley (SD) rats; [7]) | KET (mmol/L) of males: animals with grade 3.9 (Sprague Dawley (SD) rats; [8]) | NIT of males: animals with grade + (Sprague Dawley (SD) rats; [8])
Physical dependence was induced: Physical dependence after spontaneous withdrawal (rats)
5: KET (mmol/L) of males: animals with grade — (Sprague Dawley (SD) rats; [6]) | NIT of males: animals with grade — (Sprague Dawley (SD) rats; [8])

From paper PMC10436550, “Subacute toxicity evaluations of LPM3480392 in rats, a full µ-opioid receptor biased agonist” (Frontiers in Pharmacology, 2023)
